Measurements published in patent publication US11840546B2, “Imidazopyridazine compounds and uses thereof” (Incyte Corporation, priority 2020, dated 2023).

Tests used:
ALK2 (aa 147-end) = ALK2 (aa 147-end) (Homo sapiens (Human), UniProt Q04771); experiment: ALK2 HTRF Assay; format: biochemical; details: HTRF enzymatic assay, 3 μM ATP, 0.5 nM ALK2, 25° C., 2 hr
Method: ALK2 (aa 147-end) was obtained from BPS biosciences. The enzymatic assays were conducted in white 384-well polystyrene plates in a final volume of 8 μL. The inhibitors were serially diluted in DMSO and added to the plate wells prior to addition of the other reaction components. The assays were carried out at 25° C. in the assay buffer (50 mM HEPES, pH 7.0, 10% Glycerol, 0.01% Brij50, 10 mM MgCl2, 1 mM EGTA, 5 mM DTT, and 0.01% BSA), containing 50 nM LANCE Ultra ULight™-DNA Topoisomerase 2-alpha peptide (Perkin Elmer TRF0130), and 3 μM ATP. The final concentration of DMSO in the assay was […] and the enzyme concentration was 0.5 nM for ALK2. The reactions were allowed to proceed for 2 hr for ALK2 after which, the reaction was quenched by addition of EDTA at a final concentration of 20 mM along with 1.5 nM LANCE Ultra Europium-anti-phospho-DNA Topoisomerase 2-alpha (Thr1342) antibody (Perkin Elmer TRF0218). The reaction was incubated at 25° C. for 1 hr and read on a PHERAstar FS plate reader (BMG Labtech). IC50 determination was performed by fitting percent control activity versus the log of the inhibitor concentration using the IDBS XLFit and GraphPad Prism 5.0 software.

ALK2 mutant DIPG cell = details: ALK2 mutant DIPG cells; cited from earlier work

ALK2 (aa 147-end), sequence (Q04771 147-509 limits assumed): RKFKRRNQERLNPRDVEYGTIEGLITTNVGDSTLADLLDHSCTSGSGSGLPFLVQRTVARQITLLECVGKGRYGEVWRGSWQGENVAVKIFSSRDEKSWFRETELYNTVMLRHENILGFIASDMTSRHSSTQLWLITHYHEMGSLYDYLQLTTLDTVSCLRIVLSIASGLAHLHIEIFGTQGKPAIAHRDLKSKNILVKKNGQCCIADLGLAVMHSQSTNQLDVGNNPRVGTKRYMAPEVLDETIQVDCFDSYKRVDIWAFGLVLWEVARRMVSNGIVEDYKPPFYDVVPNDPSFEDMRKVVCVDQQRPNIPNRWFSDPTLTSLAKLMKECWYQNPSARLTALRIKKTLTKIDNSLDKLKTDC

## Cc1cnn(-c2ccc3c(-c4cnc5cc(-c6ccc(CN7CC8CCC7CC8)cc6)c(C)nn45)ccnc3n2)n1 [Example 3, 2-(4-(6-Methyl-3-(7-(4-methyl-2H-1,2,3-triazol-2-yl)-1,8-naphthyridin-4-yl)imidazo[1,2-b]pyridazin-7-yl)benzyl)-2-azabicyclo[2.2.2]octane]
ALK2 (aa 147-end)
  IC50: ≤ 1 nM

## c1ccc2c(-c3cnn4cc(-c5ccc(N6CCNCC6)cc5)cnc34)ccnc2c1 [LDN-19318917]
ALK2 mutant DIPG cell
  inhibition of ALK2 mutant DIPG cell viability: significant inhibition

## CCn1cnc(-c2ccc3c(-c4cnc5cc(-c6ccc([C@@]78C[C@@H]7CN(C7CCOCC7)C8)cc6)c(C)nn45)ccnc3n2)c1 [Example 1, 2-(1-Ethyl-1H-imidazol-4-yl)-5-(6-methyl-7-(4-((1R,5S)-3-(tetrahydro-2H-pyran-4-yl)-3-azabicyclo[3.1.0]hexan-1-yl)phenyl)imidazo[1,2-b]pyridazin-3-yl)-1,8-naphthyridine]
ALK2 (aa 147-end)
  IC50: ≤ 1 nM

## Cc1cnn(-c2ccc3c(-c4cnc5cc(-c6ccc([C@]78C[C@H]7CN(C7CCOCC7)C8)cc6)c(C)nn45)ccnc3n2)n1 (stereo in doubt) [Example 4, 2-(4-Methyl-2H-1,2,3-triazol-2-yl)-5-(6-methyl-7-(4-((1S,5R)-3-(tetrahydro-2H-pyran-4-yl)-3-azabicyclo[3.1.0]hexan-1-yl)phenyl)imidazo[1,2-b]pyridazin-3-yl)-1,8-naphthyridine]
ALK2 (aa 147-end)
  IC50: ≤ 1 nM

## CCn1cnc(-c2ccc3c(-c4cnc5cc(-c6ccc(CN7CC8CCC7CC8)cc6)c(C)nn45)ccnc3n2)c1 [Example 2, 2-(4-(3-(7-(1-Ethyl-1H-imidazol-4-yl)-1,8-naphthyridin-4-yl)-6-methylimidazo[1,2-b]pyridazin-7-yl)benzyl)-2-azabicyclo[2.2.2]octane]
ALK2 (aa 147-end)
  IC50: ≤ 1 nM
